Source: patent US8071552B2, “Peptides and peptidomimetics binding to CD23” (Universite Bordeaux 2, priority 2004, dated 2011)
Values joined by “and” are separate entries in the source; they are usually repeats but may differ in a detail not shown here. Equal values may be shown once. No end group written: not given here.

Key:
[1] = system: Monocyte-derived macrophages (CD23+); assay: Quantification of inflammatory response: nitrites (Greiss) from CD23-activated human macrophages, % inhibition relative to controls; format: cell-based; settings: human macrophages activated through CD23
Text: Monocytes are isolated from normal human peripheral blood. Samples are collected from normal volunteers (20-50 years) by blood bank. They are all tested for the absence of HIV or HBV contaminations prior to use. Human normal mononuclear cells are obtained by Ficoll (Histopaque, Sigma) gradient separation of peripheral blood leukocytes. Monocytes are separated from lymphocytes by adherence to plastic dishes coated with fetal calf serum (FCS) as described (Vouldoukis I., et al., Proc. Natl. Acad. Sci. USA., 92: 7804-7808 1995). Following this procedure, >90% of cells express CD14 antigen and display cytochemical characteristics of monocytes. The cells are then incubated in DMEM supplemented with L-non-essential amino acids, sodium pyruvate, glutamine, penicillin, streptomycin, and 10% FCS (all from Gibco Laboratories, Grand Island, N.Y.). Above culture medium, chemicals, and FCS are tested for the absence of direct activation effect on human monocytes (CD23 expression and TNF-α production as activation markers). Following 24-48 hr adherence to culture flasks, these cells differentiate into macrophage-like cells displaying non-specific esterase activity that is inhibited by sodium fluoride.
Normal human donor-derived adherent cells have low if any surface CD23 expression and are designated in the present work as macrophages. CD23 expression is obtained following cell incubation with recombinant human interleukin 4 ([…]). […] Tissue-derived macrophages are mostly CD23^+.
Monocyte-derived macrophages (CD23^+) are activated through the cross-linking of their CD23 surface molecules by appropriate MoAb (20 μg/ml, clone 135, IgG1κ isotype) or by human IgE/anti-IgE complexes (IgE, Stallergene, Paris, France; goat anti-human-IgE, Nordic Immunology, Tilburg, The Netherlands). This activation pathway promotes the activation of iNOS mRNA transcription and the generation, by macrophages, of various inflammatory mediators such as nitric oxide (NO), TNF-α, reactive oxygen radicals, IL-1, and IL-6 (for, a review see: Dugas B, et al., Immunol Today, 16:574-580(1995)).
Following 1-3 day incubation at 37° C., 5% CO2 in humid atmosphere, macrophages are analyzed for their inflammatory response as following:
48-96 hr incubation: Collection of supernatants for the detection of cytokines and nitrites. Nitrites are quantified by Greiss method (Davies et al., Methods in Molecular Biology, 225:305-320, 2003) while IL-1, IL-6 and TNF-α: were quantified using commercial ELISA kits. The following antibodies and reagents were utilized:
Following quantitation of nitrites, a percentage inhibition relative to controls is calculated.

[2] = system: CD23+ cells; assay: Inhibition of NO generation from activated macrophages (nitrites by Greiss reaction); format: cell-based, human; settings: peptide 4 hours, then IgE/anti-IgE; 3-5 day incubation
Procedure: (§1) For inflammatory functions, cells are pre-incubated with CD23-counterstructures during 4 hours prior to their incubation with CD23-MoAb or IgE/anti-IgE complexes. Cell supernatants are collected 2-4 days later and tested for their contents in various mediators.
Inflammatory responses of human macrophages almost correlated with in vivo generation of nitric oxide by these cells. We use this inflammatory mediator as a marker of cell activation.
(§2) CD23^+ cells are incubated in the presence or the absence of an inhibitory peptide (p30A) for 4 hours. CD23-MoAb or IgE/anti-IgE immune complexes are added. Following 3-5 day incubation, cell supernatants are harvested and the level of nitrites quantified by Greiss reaction (Davies et al., Methods in Molecular Biology, 225:305-320, 2003).

[3] = system: macrophages derived from synovial fluid of patients with Rheumatoid Arthritis; assay: NO generation by macrophages derived from synovial fluid of patients with Rheumatoid Arthritis; format: cell-based, human; settings: RA synovial fluid macrophages
Procedure: as §2, with “[…])” for “(p30A)”, “2003). The effect of CD23-Peptide or a negative control on inflammatory functions of macrophages derived from synovial fluid of patients with Rheumatoid Arthritis is also investigated.” for “2003).”

[4] = system: rat peritoneal macrophages and rat peripheral macrophages; assay: NO production from rat peritoneal and peripheral macrophages induced by IgE/DNP-BSA; format: cell-based; settings: peptide 4 hours, 3-5 day incubation
Procedure: NO production from rat peritoneal macrophages and rat peripheral macrophages is also determined. Peritoneal macrophages are highly CD23^+ and produce much higher quantities of pro-inflammatory mediators compared to peripheral blood-derived cells. CD23^+ cells are incubated in the presence or the absence of an inhibitory peptide (p30A) for 4 hours. IgE/DNP-BSA is added to induce CD23 cross-linking. L-NIL is a specific inhibitor of NOS-II. Pep− is a negative control peptide. Following 3-5 day incubation, cell supernatants are harvested and the level of nitrites quantified by Greiss reaction (Davies et al., Methods in Molecular Biology, 225:305-320, 2003).

[5] = system: CD23+ cells; assay: Inhibition of TNF-α generation from activated macrophages (ELISA); format: cell-based, human
Procedure: as §1
In addition to NO, the effect of peptides on the production of TNF-α, a well-documented effector factor during inflammatory diseases, is also tested.
(§3) CD23^+ cells are incubated in the presence or the absence of an inhibitory peptide (p30A) for 4 hours. CD23-MoAb or IgE/anti-IgE immune complexes are added. Following 3-5 day incubation, cell supernatants are harvested and the level of TNF-α, quantified by specific ELISA.

[6] = system: macrophages derived from peripheral blood or the synovial fluid of patients with Rheumatoid Arthritis; assay: TNF-α generation by macrophages from peripheral blood or synovial fluid of patients with Rheumatoid Arthritis; format: cell-based, human; settings: for level of TNF-α: p30A + CD23-Ab
Procedure: as §3, with “ELISA. The effect of CD23-Peptide or a negative control on inflammatory functions of macrophages derived from peripheral blood or the synovial fluid of patients with Rheumatoid Arthritis is also investigated.” for “ELISA.”

[7] = system: arthritic rats; assay: Treatment of arthritic rats (Mycobacterium butyricum-induced arthritis); format: in vivo, Lewis rats
Procedure: On day 0, 6-week old female Lewis rats weighing 145-155 g are injected subcutaneously with an arthritis-inducing emulsion. The rats are injected with 300 μl of the emulsion which contains: • 2 mg/rat heat-inactivated Mycobacterium butyricum diluted into; • 240 μl of Vaseline; • 30 μl of Tween-20; and • 30 μl of PBS.
The immunization step is repeated on day 7. The rats present arthritis signs by days 15 have to 21. Arthritic signs are assigned a clinical score (1-4). By day 40, the clinical scores increase from 1 to 3 or 4. Slower weight progression is also observed in immunized rats (FIG. 1a).
However, subcutaneous injection of 5 mg of p30A after the appearance of clinical signs results in complete remission of arthritic symptoms for 50% of the rats (FIG. 1b) as well as decreased clinical scores in 25% of the remaining rats.

[8] = system: Adjuvant arthritis (AA) rats; assay: In vivo prevention and treatment of adjuvant arthritis in rats with p30A; design: species or system Lewis rats
Procedure: Each group of animals comprises eight rats. Female Lewis rats (Janvier, Le Genest St Isle, France) are housed under standard laboratory conditions and the animals are allowed free access to food and water. The temperature is kept at 22±2° C. and a 12-hour light/dark schedule is maintained. All animal procedures are performed in strict accordance with the guidelines issued by the European Economic Community “86/609”. Adjuvant arthritis (AA) is induced in six weeks-old animals by subcutaneous injection at the base of the tail of 300 μl (1.8 mg) of inactivated Mycobacterium butyricum (Difco Laboratories, Detroit, Mich.) diluted in emulsion of 8 ml Vaseline, 1 ml polysorbate 80, and 1 ml PBS (Phosphate Buffer Saline, BioWhittaker, Walkersville, Md.). Rats are boosted one week later with the same dose of antigen and observed for up to 50 days following immunization for clinical symptoms of arthritis. Evaluation of AA severity is performed by two independent observers with no knowledge of the treatment protocol. The severity of AA in each paw is quantified daily by a clinical score measurement from 0 to 2 as following: no signs of inflammation (0); swelling alone (>2 fold paw diameter) (0.5) or swelling/immobility (1.0) of one paw; swelling (1,5) or swelling/immobility (2,0) of two paws. Weight evolution of the animals is measured daily. Rats are injected with peptides or peptidomimetics (dissolved in 0.1% DMSO) I.C. every two days (day 0, 2, 4, 6, and 8) during the initiation of inflammation (preventive) or following the appearance of the inflammatory signs. As negative control, rats are injected with saline.
Clinical scores are determined as described above, and the cumulative clinical score is plotted against days post-immunization (FIGS. 2, 3, and 4).
In each of FIGS. 2, 3, and 4, arrows below the x-axis indicate the days on which IC injections were administered.

[9] = Peripheral Macrophages of RA patients
[10] = subcutaneous injection of 5 mg after the appearance of clinical signs

Substance: Ac N W BetaA CO2H [Compound 410]
- % Inhibition (nitrites relative to controls; inhibition of iNOS production) [1]: 61%

Substance: Ac N W CO2H [Compound 411]
- % Inhibition (nitrites relative to controls; inhibition of iNOS production) [1]: 84%

Substance: Ac n w CO2H [Compound 492]
- % Inhibition (nitrites relative to controls; inhibition of iNOS production) [1]: 77%

Substance: Ac w n CO2H [Compound 491]
- % Inhibition (nitrites relative to controls; inhibition of iNOS production) [1]: 94%

Substance: F H E N W beta A S [Compound 328]
- % Inhibition (nitrites relative to controls; inhibition of iNOS production) [1]: 26%

Substance: FHENWPS [p30A]
- level of nitrites [NO2-] [2]: 2.6 µM and 1.4 µM
- level of nitrites [NO2-] ([3]; peptide + CD23-Ab): 7.9 µM and 9.5 µM
- level of nitrites [NO2-] ([3]; peptide alone (no CD23-Ab)): 8.5 µM and 10.3 µM
- IgE/DNP-BSA-induced NO production by macrophages [4]: inhibits IgE/DNP-BSA-induced NO production
- % Inhibition of TNF-α ([5]; p30A + CD23-Ab versus CD23-Ab): 47% and 54%
- level of TNF-α ([5]; peptide 4 hours, then CD23-Ab, 3-5 day incubation): 77 pg TNF-α/ml and 89 pg TNF-α/ml
- % Inhibition of TNF-α [6, 9]: 73%
- level of TNF-α [6, 9]: 40 pg TNF-α/ml
- % Inhibition of TNF-α ([6]; SF Macrophages of RA patients): 41%
- level of TNF-α ([6]; SF Macrophages of RA patients): 140 pg TNF-α/ml
- remission of the arthritic condition ([7]; intraperitoneal injection or intravenous treatment): do not induce remission
- remission of arthritis (FIG. 1b) ([7]; subcutaneous injection of 5 mg): results in remission
- complete remission of arthritic symptoms [7, 10]: 50 % of the rats
- decreased clinical scores [7, 10]: 25 % of the remaining rats
- arthritis appearance ([7]; unique injection (intraperitoneal or subcutaneous) at day 0): no affect on arthritis appearance
- cumulative clinical score, preventive treatment (FIG. 2) ([8]; injections every two days from immunization, two dosage regimes, versus control rats): clearly superior clinical scores compared to control rats
- weight gain (FIG. 4) ([8]; rats with arthritic symptoms, versus untreated arthritic rats): produced weight gain
- cumulative clinical score, therapeutic treatment (FIG. 3) ([8]; treated from day of first symptoms, 3 dosage regimes, versus control rats): clear therapeutic effect

Substance: G[allyl-] N W G[allyl-] S [Compound 490]
- % Inhibition (nitrites relative to controls; inhibition of iNOS production) [1]: 81%

Substance: H E N W S [Compound 437]
- % Inhibition (nitrites relative to controls; inhibition of iNOS production) [1]: 56%

Substance: H E N W Sar S [Compound 398]
- % Inhibition (nitrites relative to controls; inhibition of iNOS production) [1]: 74%

Substance: NH2 G[allyl-] N W G[allyl-] [Compound 489]
- % Inhibition (nitrites relative to controls; inhibition of iNOS production) [1]: 62%
